# Experimental data as given in PMC6688182 (Peptides, 2017).
# Where “and” joins values, the source holds several entries; their conditions need not be identical. Identical values can stand only once. Entries after “also recorded” stand apart in the source; their conditions may differ.
# How the values were obtained:
# [1] = test system: Ang-(1–7)-dependent vasorelaxation of the isolated renal artery; assay: Effect of NOS, soluble guanylate cyclase and cyclooxygenase inhibitors on Ang-; parameters: species or system male Wistar rat; conditions: for Effect of signaling inhibitor on Ang-(1–7)-induced vasorelaxation (in words) / Maximal vasorelaxation response to Ang-(1–7) in presence of L-NAME: L-NAME 10^−4 M; for Effect of signaling inhibitor on Ang-(1–7)-induced vasorelaxation (in words): indomethacin 10^−6 M; for Maximal vasorelaxation response to Ang-(1–7) in presence of L-NAME: N = 6
# mesenteric vessels = conditions: rat mesentery; ref [20]; cited from earlier work
# blood pressure = conditions: ref [1],[16],[17]; cited from earlier work
# [2] = test system: Ang-(1–7)-dependent vasorelaxation of the isolated renal artery; assay: Effect of angiotensin receptor antagonists on Ang-; parameters: species or system male Wistar rat; conditions: for Effect of receptor antagonist on Ang-(1–7)-induced vasorelaxation (in words): DALA, DPRO, Sarthran 10^−5 M, losartan, PD123319 10^−6 M, 20 min
# mesenteric artery = conditions: ref [21]; cited from earlier work
# aortic segments = conditions: ref [28]; cited from earlier work
# AT2 and AT1 sites = conditions: ref [4],[30],[31],[35]; cited from earlier work
# [3] = test system: Mas-related receptor MrgD; conditions: aortic rings; ref [19]; cited from earlier work
# older WKY rats = conditions: 20 months, ref [5]; cited from earlier work
# [4] = test system: blood flow in multiple vascular beds; conditions: kidney, mesentery and skin; ref [27]; cited from earlier work
# bovine endothelial cells = conditions: cited from earlier work; for Effect on NO stimulation by Ang-(1–7) or AVE0991: bovine endothelial cells, ref [14],[37]
# afferent arterioles = conditions: ref [24]; cited from earlier work
# [5] = test system: Ang-(1–7)-dependent vasorelaxation of the isolated renal artery; assay: Effect of K+ channel blockers on Ang-; parameters: species or system male Wistar rat; conditions: glibenclamide 10^−5 M; PE 3 × 10^−7 M; mean ± SEM, N = 8; * P < 0.05 vs. control
# [6] = test system: anti-nociceptive actions of Ang-(1–7); conditions: ref [13]; cited from earlier work
# SHR and WKY rats = SHR and WKY rats following AT1 receptor blockade; ref [36]; cited from earlier work
# AT2 receptor = target: T1, AT2 receptor (Rattus norvegicus, UniProt P35351); assay: Competition of 125I-Sarthran binding in AR42J pancreatic cell membranes; conditions: 0.2 nM 125I-Sarthran, antagonists up to 10^−5 M, n = 3
# T1 sequence (P35351 1-363): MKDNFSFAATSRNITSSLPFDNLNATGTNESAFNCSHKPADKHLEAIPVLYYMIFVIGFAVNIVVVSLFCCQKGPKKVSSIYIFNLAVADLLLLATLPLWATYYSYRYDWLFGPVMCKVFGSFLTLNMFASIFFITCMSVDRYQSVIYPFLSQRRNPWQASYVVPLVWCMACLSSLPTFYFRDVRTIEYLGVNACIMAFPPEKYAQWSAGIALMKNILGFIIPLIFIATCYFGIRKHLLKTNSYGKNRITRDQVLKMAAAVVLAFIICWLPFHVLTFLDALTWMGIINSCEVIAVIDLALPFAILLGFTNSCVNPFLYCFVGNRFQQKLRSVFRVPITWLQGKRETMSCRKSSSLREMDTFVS
# [7] = test system: Ang-(1–7)-dependent vasorelaxation of the isolated renal artery; assay: Effect of bradykinin B2 receptor antagonist on Ang-; parameters: species or system male Wistar rat
compound,measurement,setting,value
COc1ccc2c(c1)c(CC(=O)O)c(C)n2C(=O)c1ccc(Cl)cc1 [Indomethacin],Effect of signaling inhibitor on Ang-(1–7)-induced vasorelaxation (in words),[1]; ODQ 10^−5 M,failed to block the Ang-(1–7) response
same,Effect on Ang-(1–7)-dependent dilation of mesenteric vessels,mesenteric vessels,inhibition of the Ang-(1–7) vasorelaxant effects
same,Effect on blood pressure-lowering effects of Ang-(1–7),blood pressure,attenuated the blood pressure-lowering effects of the peptide
CCCCc1nc(Cl)c(CO)n1Cc1ccc(-c2ccccc2-c2nn[nH]n2)cc1 [Losartan],Maximal vasorelaxation response to Ang-(1–7) in presence of antagonist,[2],22 ± 6%
same,Effect of receptor antagonist on Ang-(1–7)-induced vasorelaxation (in words),[2],significantly attenuated
same,Effect on vasorelaxation of the mesenteric artery by Ang-(1–7),mesenteric artery,blocked
same,Effect on Ang-(1–7)-dependent relaxation of aortic segments,aortic segments,no inhibitory effect
"O=c1onc2cnc3ccccc3n12 [ODQ, 1H-[1,2,4] oxadiazolo-quinoxalin]",Maximal vasorelaxation response to Ang-(1–7) in presence of ODQ,"[1]; ODQ 10^−5 M, Ang-(1–7) 10^−12 to 10^−6 M, PE 3 × 10^−7 M, mean ± SEM, N = 8, * P < 0.05 vs. control",10 ± 2% and 10.0 ± 2.1 ^* %
[D-Proline^7]-Ang-(1–7) [D-Pro^7-Ang-(1–7)],Effect of receptor antagonist on Ang-(1–7)-induced vasorelaxation (in words),[2],significantly inhibited; also recorded: essentially abolished
same,Action at AT2 and AT1 sites,AT2 and AT1 sites,lack of actions at AT2 and AT1 sites
same,Effect on the effects of [Ala^1]-Ang-(1–7),[3],abolished the effects of [Ala^1]-Ang-(1–7)
[D-Alanine^7]-Ang-(1–7) [D-Ala^7-Ang-(1–7)],Effect of receptor antagonist on Ang-(1–7)-induced vasorelaxation (in words),[2],significantly inhibited; also recorded: essentially abolished
same,Effect on vasorelaxation of the mesenteric artery by Ang-(1–7),mesenteric artery,blocked
same,Action at AT2 and AT1 sites,AT2 and AT1 sites,lack of actions at AT2 and AT1 sites
same,Effect on depressor actions of Ang-(1–7),older WKY rats,blocked the depressor actions of Ang-(1–7)
same,Effect on the effects of [Ala^1]-Ang-(1–7),[3],ineffective
same,Effect on Ang-(1–7)-dependent relaxation of aortic segments,aortic segments,abolished
same,Effect on increase in blood flow by Ang-(1–7),[4],abolished
same,Effect on NO stimulation by Ang-(1–7) or AVE0991,bovine endothelial cells,blocked
same,Effect on Ang-(1–7)-dependent dilation of mesenteric vessels,mesenteric vessels,sensitivity to DALA blockade
same,Effect on Ang-(1–7)-induced vasodilation of renal afferent arterioles,afferent arterioles,abolished
CCc1nc2c(C)cc(C)nc2n1Cc1ccc(-c2ccccc2-c2nn[nH]n2)cc1 [L158809],Effect on Ang-(1–7)-induced vasodilation of renal afferent arterioles,afferent arterioles,not reversed
CCOc1nc2cccc(C(=O)O)c2n1Cc1ccc(-c2ccccc2-c2nnn[nH]2)cc1 [candesartan],Effect on vasorelaxation of the mesenteric artery by Ang-(1–7),mesenteric artery,blocked
same,Effect on Ang-(1–7)-dependent NO release,bovine endothelial cells; ref [14],attenuated Ang-(1–7)-dependent NO release
COc1ccc(Cl)cc1C(=O)NCCc1ccc(S(=O)(=O)NC(=O)NC2CCCCC2)cc1 [Glibenclamide],Maximal vasorelaxation response to Ang-(1–7) in presence of glibenclamide,[5],22.3 ± 2.3 ^* %
same,Effect on anti-nociceptive actions of Ang-(1–7),[6],abolished the anti-nociceptive actions of Ang-(1–7)
Cc1cc(Cn2cnc3c2C[C@@H](C(=O)O)N(C(=O)C(c2ccccc2)c2ccccc2)C3)ccc1N(C)C [PD123319],Effect on depressor effects of Ang-(1–7),SHR and WKY rats,abolished
same,Effect of receptor antagonist on Ang-(1–7)-induced vasorelaxation (in words),[2],significantly attenuated
same,Effect on vasorelaxation of the mesenteric artery by Ang-(1–7),mesenteric artery,but not the AT2 antagonist PD123319
same,Effect on depressor actions of Ang-(1–7),older WKY rats,blocked the depressor actions of Ang-(1–7)
same,Effect on the effects of [Ala^1]-Ang-(1–7),[3],abolished the effects of [Ala^1]-Ang-(1–7)
same,Competition of 125I-Sarthran binding (in words),AT2 receptor,essentially abolished binding
same,Effect on Ang-(1–7)-dependent relaxation of aortic segments,aortic segments,no inhibitory effect
same,Effect on NO stimulation by Ang-(1–7) or AVE0991,bovine endothelial cells,blocked
same,Effect on Ang-(1–7)-induced vasodilation of renal afferent arterioles,afferent arterioles,not reversed
"COC(=O)[C@@H](N)CCCNC(N)=N[N+](=O)[O-] [L-NAME, nitro-l-arginine methyl ester]",Effect on depressor effects of Ang-(1–7),SHR and WKY rats,sensitive
same,Maximal vasorelaxation response to Ang-(1–7) in presence of L-NAME,"[1]; Ang-(1–7) 10^−12 to 10^−6 M, PE 3 × 10^−7 M, mean ± SEM, * P < 0.05 vs. control",13.4 ± 2.0 ^* %
same,Maximal vasorelaxation response to Ang-(1–7) in presence of L-NAME,"[1]; Ang-(1–7) 10^−12 to 10^−6 M, PE 3 × 10^−7 M, mean ± SEM, * P < 0.05 vs. control, listed as LNAME",13 ± 2%
same,Effect of signaling inhibitor on Ang-(1–7)-induced vasorelaxation (in words),[1]; ODQ 10^−5 M,attenuated the Ang-(1–7) response
same,Effect on NO stimulation by Ang-(1–7) or AVE0991,bovine endothelial cells,blocked
same,Effect on Ang-(1–7)-dependent dilation of mesenteric vessels,mesenteric vessels,inhibition of the Ang-(1–7) vasorelaxant effects
HOE140,Effect of B2 antagonist on Ang-(1–7)-induced vasorelaxation (in words),"[7]; HOE140 5 × 10^−8 M, alone or with L-NAME 10^−4 M",markedly inhibited the vasorelaxation to Ang-(1–7); also recorded: significantly attenuated
same,Maximal vasorelaxation response to Ang-(1–7) in presence of HOE140,"[7]; HOE140 5 × 10^−8 M, PE 3 × 10^−7 M, mean ± SEM, N = 9, * P < 0.05 vs. control 42.4 ± 5.8",14.0 ± 7.0 ^* %
same,Ang-(1–7)-induced relaxation (maximal response) in presence of HOE140,"[7]; HOE140 10^−6 M as printed in the abstract, PE 3 × 10^−7 M, mean ± SEM",14 ± 7%
same,Effect on depressor effects of Ang-(1–7),SHR and WKY rats,sensitive
same,Effect on NO stimulation by Ang-(1–7) or AVE0991,bovine endothelial cells,blocked
